# Source: patent publication US20040234610A1, “Medical device and method for inhalation of aerosolized drug with heliox” (priority 2001, published 2004)
# “And” between values parts separate entries of the source, which are not always exact repeats. Identical values can stand only once.
# How the values were obtained:
# [1] = test system: adult patients with severe acute exacerbation of asthma; experiment: Same randomized study: vital signs, pulse oximetry, hospital admissions; format: in vivo, human; details: for % change HR post neb 1 / % change HR post neb 2 / % change HR post neb 3: mean ± SD; for Hospital admission rate: P=0.81
# Description: The heliox delivery system consisted of a facemask connected to a Y-piece with the nebulizer (Airlife™ Misty-Neb™ Nebulizer) on one limb and a non-rebreather bag on the other limb (as shown in FIG. 1). Heliox flow to the nebulizer was set at 10 liters/minute (via an oxygen calibrated flow meter thus equivalent to 18 L/min Heliox flow). A separate flow of 10 liters/minute of heliox (via an oxygen calibrated flow meter thus equivalent to 18 L/min Heliox flow) was delivered to the non-rebreather bag. […] Each treatment continued until the nebulizer was dry—a period of approximately ten minutes, followed by a fifteen minute washout period. The total time for the study was approximately 90 minutes. Corticosteroid therapy for asthma exacerbations was directed by the emergency room physicians, who were not directly involved in the study.
# Demographic data, chronic asthma medications, emergency room corticosteroid administration, vital signs (heart rate, mean arterial pressure, respiratory rate), oxygen saturation by pulse oximetry, emergency room length of stay and hospital admissions from the emergency room were recorded for all patients. Data are expressed as mean±SD when normally distributed and median (interquartile range) when not normally distributed. Interval data were compared using a two-tailed Student's t test or Mann Whitney U test according to normality of distribution, categorical data were compared using Chi square or Fisher Exact test when appropriate. […] The Student-Newman-Keuls test was used to compare differences between heliox and control groups after each nebulization treatment when appropriate. […] A 25% difference in percent change in FEV1 between the control and heliox groups was considered clinically important. Using a standard deviation of 28% (based on preliminary work), an a error of 0.05 and a β error of 0.20, it was estimated that a total of 42 patients (21 in each group) would be needed to avoid a type II error. […] In this situation, a P value of <0.0167 was considered to indicate statistical significance.
# [2] = Nebulized particle size distribution by Anderson Cascade Impactor, RES-Q-Neb (T and Y design) vs HOPE nebulizer; format: physicochemical
# Method: A study was conducted to compare the performance of two embodiments of the heliox nebulization system described herein (called the RES-Q-Neb™ Nebulizer) with a commercially available nebulizer (HOPE™, B&B Medical Technologies, Inc., Orangevale, Calif., USA) that is driven by air.
# Measurements were done using an Anderson Cascade Impactor (ACI) operated at an air flow rate of 28.3 L/min. The nebulizers were connected one at a time to the same tee piece and collar. The ACI consisted of eight stages, a backup filter, and an inlet (USP throat).
# Gas flows through the nebulizers and impactor were controlled with rotameters, which were set with the DryCal Flow Calubrator (BIOS International Co., Pomton Plains, N.J.).
# Heliox (80% helium, 20% oxygen) at 18 L/min was used to drive the RES-Q-Neb Nebulizer and another 18 L/min of the heliox was introduced into the system at the reservoir bag side port. […] The HOPE nebulizer was driven with compressed air at 10 L/min (as directed in its included label and instructions), and 18 L/min of heliox was introduced into the system at a side port, as shown in FIG. 10.
# A pre-running time was used for each test to stabilize the generation of aerosol. The RES-Q-Neb nebulizer was pre-run for 15 s, and the HOPE nebulizer was pre-run for 30 s. Six tests were run with the RES-Q-Neb nebulizer at the same conditions (3 with the “Y” adaptor and 3 with the “T” adaptor) and five tests were run with the HOPE nebulizer at the same conditions.
# After each test, the ACI and empty nebulizers were disassembled and washed with deionized water. The wash water was collected and the amount of drug remaining or collected was determined using spectrophotometric analysis at 224 nm.
# The particle sizes are expressed as 50% mass median aerodynamic diameters (MMAD).
# [3] = HOPE nebulizer, compressed air 10 L/min nebulizer + heliox 18 L/min side port
# [4] = HOPE nebulizer, compressed air 10 L/min nebulizer + heliox 18 L/min side port, mean of 5 tests
# [5] = HOPE nebulizer, compressed air 10 L/min nebulizer + heliox 18 L/min side port, single tests, listed as Albuterol sulfate
# [6] = RES-Q-Neb T design, heliox 18 L/min nebulizer + 18 L/min side port
# [7] = RES-Q-Neb T design, heliox 18 L/min nebulizer + 18 L/min side port, mean of 3 tests
# [8] = RES-Q-Neb T design, heliox 18 L/min nebulizer + 18 L/min side port, single tests, listed as Albuterol sulfate
# [9] = RES-Q-Neb Y design, heliox 18 L/min nebulizer + 18 L/min side port (18-18 lpm)
# [10] = RES-Q-Neb Y design, heliox 18 L/min nebulizer + 18 L/min side port, mean of 3 tests
# [11] = RES-Q-Neb Y design, heliox 18 L/min nebulizer + 18 L/min side port, single tests, listed as Albuterol sulfate
structure (smiles),measurement,setting,value
CC(C)(C)NCC(O)c1ccc(O)c(CO)c1 (stereo not shown) [albuterol],"differences in other vital signs or pulse oximetry, heliox vs control","[1]; MAP, RR, SpO2, at any point during the study",no other significant differences in any vital signs or in pulse oximetry between the groups
same,% change HR post neb 1,[1]; control (oxygen),−8.7 ± 7.4%
same,% change HR post neb 2,[1]; control (oxygen),−4.6 ± 8.7%
same,% change HR post neb 3,[1]; control (oxygen),−2.7 ± 12.7%
same,Hospital admission rate,[1]; control group (oxygen),6 of 22
same,Hospital admission rate,[1]; heliox group,6 of 23
same,% change HR post neb 1,"[1]; heliox, P 0.01 vs control",−0.9 ± 7.8%
same,% change HR post neb 3,"[1]; heliox, P 0.01 vs control",5.6 ± 12.0%
same,% change HR post neb 2,"[1]; heliox, P 0.08 vs control",1.0 ± 11.3%
same,0.7 ≦ Mean Fraction < 5.8 μm,[2]; [3],0.503
same,Mean Fraction < 0.7 μm,[2]; [3],0.052
same,Mean Fraction at Midpoint = 1.52 μm,[2]; [3],0.227
same,Mean Fraction ≧ 5.8 μm,[2]; [3],0.446
same,"Mean Fraction, Collar",[2]; [4],0.009
same,"Mean Fraction, Filter (cut-size <0.4 micron)",[2]; [4],0.015
same,"Mean Fraction, Stage 0 (cut-size 9 micron)",[2]; [4],0.110
same,"Mean Fraction, Stage 1 (cut-size 5.8 micron)",[2]; [4],0.151
same,"Mean Fraction, Stage 2 (cut-size 4.7 micron)",[2]; [4],0.044
same,"Mean Fraction, Stage 3 (cut-size 3.3 micron)",[2]; [4],0.099
same,"Mean Fraction, Stage 4 (cut-size 2.1 micron)",[2]; [4],0.119
same,"Mean Fraction, Stage 5 (cut-size 1.1 micron)",[2]; [4],0.227
same,"Mean Fraction, Stage 6 (cut-size 0.7 micron)",[2]; [4],0.014
same,"Mean Fraction, Stage 7 (cut-size 0.4 micron)",[2]; [4],0.037
same,"Mean Fraction, Tee Piece",[2]; [4],0.060
same,"Mean Fraction, Throat (cut-size >9 micron)",[2]; [4],0.034
same,"Mean Fraction, Tube",[2]; [4],0.082
same,"Fraction, Stage 1 (cut-size 5.8 micron)",[2]; [5],0.139 and 0.164 and 0.154 and 0.138 and 0.160
same,"Fraction, Stage 2 (cut-size 4.7 micron)",[2]; [5],0.039 and 0.047 and 0.044 and 0.045
same,"Fraction, Stage 3 (cut-size 3.3 micron)",[2]; [5],0.088 and 0.110 and 0.109 and 0.090 and 0.099
same,"Fraction, Tee Piece",[2]; [5],0.066 and 0.056 and 0.058 and 0.052 and 0.069
same,"Fraction, Throat (cut-size >9 micron)",[2]; [5],0.033 and 0.037 and 0.036 and 0.030 and 0.035
same,"Fraction, Tube",[2]; [5],0.105 and 0.077 and 0.073 and 0.081 and 0.074
same,0.7 ≦ Mean Fraction < 5.8 μm,[2]; [6],0.697
same,Mean Fraction < 0.7 μm,[2]; [6],0.218
same,Mean Fraction at Midpoint = 1.52 μm,[2]; [6],0.519
same,Mean Fraction ≧ 5.8 μm,[2]; [6],0.086
same,mean output rate,[2]; [6],0.54 mL/min
same,"Mean Fraction, Adapter",[2]; [7],0.033
same,"Mean Fraction, Collar",[2]; [7],0.008
same,"Mean Fraction, Filter (cut-size <0.4 micron)",[2]; [7],0.044
same,"Mean Fraction, Stage 0 (cut-size 9 micron)",[2]; [7],0.010
same,"Mean Fraction, Stage 1 (cut-size 5.8 micron)",[2]; [7],0.015
same,"Mean Fraction, Stage 2 (cut-size 4.7 micron)",[2]; [7],0.005
same,"Mean Fraction, Stage 3 (cut-size 3.3 micron)",[2]; [7],0.009
same,"Mean Fraction, Stage 4 (cut-size 2.1 micron)",[2]; [7],0.061
same,"Mean Fraction, Stage 5 (cut-size 1.1 micron)",[2]; [7],0.519
same,"Mean Fraction, Stage 6 (cut-size 0.7 micron)",[2]; [7],0.103
same,"Mean Fraction, Stage 7 (cut-size 0.4 micron)",[2]; [7],0.174
same,"Mean Fraction, T-Piece",[2]; [7],0.017
same,"Mean Fraction, Throat (cut-size >9 micron)",[2]; [7],0.003
same,"Fraction, Filter (cut-size <0.4 micron)",[2]; [8],0.037 and 0.049 and 0.045
same,"Fraction, Stage 7 (cut-size 0.4 micron)",[2]; [8],0.148 and 0.166 and 0.207
same,mean output rate,"[2]; RES-Q-Neb Y design, heliox 18 L/min nebulizer + 18 L/min side port",0.59 mL/min
same,0.7 ≦ Mean Fraction < 5.8 μm,[2]; [9],0.657
same,Mean Fraction < 0.7 μm,[2]; [9],0.239
same,Mean Fraction at Midpoint = 1.52 μm,[2]; [9],0.422
same,Mean Fraction ≧ 5.8 μm,[2]; [9],0.105
same,"Mean Fraction, Adapter",[2]; [10],0.040
same,"Mean Fraction, Collar",[2]; [10],0.009
same,"Mean Fraction, Filter (cut-size <0.4 micron)",[2]; [10],0.053
same,"Mean Fraction, Stage 0 (cut-size 9 micron)",[2]; [10],0.012
same,"Mean Fraction, Stage 1 (cut-size 5.8 micron)",[2]; [10],0.019
same,"Mean Fraction, Stage 2 (cut-size 4.7 micron)",[2]; [10],0.007
same,"Mean Fraction, Stage 3 (cut-size 3.3 micron)",[2]; [10],0.010
same,"Mean Fraction, Stage 4 (cut-size 2.1 micron)",[2]; [10],0.072
same,"Mean Fraction, Stage 5 (cut-size 1.1 micron)",[2]; [10],0.422
same,"Mean Fraction, Stage 6 (cut-size 0.7 micron)",[2]; [10],0.146
same,"Mean Fraction, Stage 7 (cut-size 0.4 micron)",[2]; [10],0.186
same,"Mean Fraction, Throat (cut-size >9 micron)",[2]; [10],0.004
same,"Mean Fraction, Y-Piece",[2]; [10],0.021
same,"Fraction, Filter (cut-size <0.4 micron)",[2]; [11],0.056 and 0.060 and 0.043
same,"Fraction, Stage 1 (cut-size 5.8 micron)",[2]; [11],0.014 and 0.023 and 0.020
same,"Fraction, Stage 6 (cut-size 0.7 micron)",[2]; [11],0.148 and 0.144
same,"Fraction, Stage 7 (cut-size 0.4 micron)",[2]; [11],0.169 and 0.180 and 0.208
same,"Fraction, Y-Piece",[2]; [11],0.026 and 0.022 and 0.015
same,"less particles >5.8 μm, present device/method vs HOPE nebulizer",[2]; less than HOPE,approximately 34%
same,"greater fraction of particles ≥0.7 and <5.8 μm (breathable range), present device/method vs HOPE nebulizer",[2]; more than HOPE,approximately 20%
same,"more particles <0.7 μm, present device/method vs HOPE nebulizer",[2]; more than HOPE,about 15%
same,"more particles with a midpoint diameter of 1.52 μm, present device/method vs HOPE nebulizer",[2]; more than HOPE,approximately 22%
